Results on eight molecules are retold here after patent publication US5763479A, “Naphthoquinone derivatives for the treatment of chronic inflammation” (KS Biomedix Ltd., priority 1991, dated 1998).

Data set [1] has as its target T1, G6PD (Homo sapiens, UniProt P11413). The data set can be described thus: decrease in G6PD activity in synovial lining cells of human rheumatoid tissue maintained in vitro. Format: cell-based. Set-up: synovial lining cells of human rheumatoid tissue maintained in vitro; from tissue; host or cells: human rheumatoid synovial tissue (synovial lining cells), maintained in vitro. The settings on record: mean±SEM. The source says: The percentage decreases in […] activity (mean±SEM) in the synovial lining cells of human rheumatoid tissue maintained in vitro, induced by naphthoquinone of formula I (R=H, X=O), including compounds outside the scope of the invention, are given in Table 2.

Data set [2] is described as follows: redox potential (E1/8) against a standard calomel electrode. In kind it is physicochemical. As to conditions: for E1/2 (mV): Table 2.
For data set [3], the system named is chronic RA. The data set can be described thus: therapeutic efficacy by intra-articular injection in chronic RA patients. The settings on record: intra-articular injections. In kind it is in vivo, human. From the text: Other soluble compounds of the invention are menadiol diphosphate, menadiol disulphate and 2-methyl-1,4-naphthohydroquinone bis(hydrogen succinate), sodium salt.

Data set [4] concerns the target T1, G6PD. Nature of the data set: G6PD activity before and after intra-articular injection in patients with chronic arthritic inflammation. In kind it is in vivo. Here is the method:
(§1) Two human patients suffering from chronic arthritic inflammation were given intra-articular injections of menadione bisulphite. The G6PD activity (mean integrated extinction ×10^3 /10 min) and lysosomal latency (% bound activity) were measured before and after injection. The G6PD activity decreased from 423 to 188 in one case and from 245 to 127 in the other; the lysosomal latency increased, respectively from 0 to 13 and from 0 to 31 (normal values are around 40% latency).

Data set [5] concerns lysosomal latency. The data set can be described thus: lysosomal latency before and after intra-articular injection in patients with chronic arthritic inflammation. Format: in vivo, human. The settings on record: before injection 0, normal around 40%. As for the experimental part: as §1
Data set [6] can be described thus: chemical stability and reactivity. In kind it is physicochemical. The settings on record: no double bond between positions 2 and 3.
In data set [7] the test system is challenged joint. The data set can be described thus: established immune (ovalbumin) arthritis in rabbits, oral menadione epoxide: joint temperature and degree of inflammation. In kind it is in vivo, rabbit (New Zealand white). As for the experimental part:
(§2) Twenty-two female New Zealand white rabbits (initial weight 1.5-2.0 kg) were immunised subcutaneously between the scapulae, with 0.5 ml of complete Freund's adjuvant containing 2.5 mg of ovalbumin (Sigma). A booster inoculation was given two weeks later. Four weeks after this, the right knee was challenged with an intra-articular injection (0.5 ml) of sterile saline containing ovalbumin (10 mg/ml). One week before this; twice a week for the next two weeks; and weekly thereafter, the temperature of both knees was measured on the medial side of the patella by means of a Digi-Sense thermocouple thermometer (Cole-Palmer Instrument Co., Chicago, Ill., U.S.A.). They were skin-tested before challenge to ensure that the cell-mediated immunity was equivalent in the treated and control rabbits. […] They were killed in pairs, treated and untreated, by intravenous injection of phenobarbitone sodium at various intervals from five to nine weeks later. After removal, the synovial tissue was cut into pieces of not greater than 0.5 cm^3; these were immersed for up to 1 min in a 5% solution of polyvinyl alcohol containing 5% CaCl2.2H2 O (Chayen et al, 1973) and then chilled to -70 ° C. in n-hexane (BDH: low in aromatic hydrocarbons grade). The tissue was stored in dry tubes at -70° C. and examined within two weeks.
Sections were cut (10 μm) in a Bright's cryostat (cabinet temperature of -30° C.) with the knife cooled with solid carbon dioxide. The sections were flash-dried on to slides taken from the ambient temperature of the laboratory (Chayen et al, 1973) and stored briefly in a desiccator before being tested for enzymatic activity.
Depending on the amount of tissue, sections were taken from up to fifteen regions of each challenged joint and stained with 0.1% toluidine blue in 0.1M acetate buffer, pH 6.1. They were assessed for thickening of the synovial lining cell layer; degree of infiltration by both chronic and acute inflammatory cells; and fibrosis. Each of these criteria was evaluated on a scale that ranged from 0 to ++. A value based on all these criteria was given for the response in each challenged joint and the degree of inflammation of the whole joint was assessed on an arbitrary scale of - to ++.

Data set [8] deals with 6-phosphogluconolactonase (6PGL). Nature of the data set: 6PGL activity in synovial lining and desquamating cells of arthritic rabbits treated with menadione epoxide. Format: in vivo, rabbit. As for the experimental part:
as §2, with “weeks. […]” for “weeks.”

Data set [9] has as its system glucose 6-phosphate dehydrogenase (G6PD). The data set can be described thus: G6PD activity in synovial lining and desquamating cells of arthritic rabbits treated with menadione epoxide. Format: in vivo, rabbit. As for the experimental part:
as §2, with “weeks. […]” for “weeks.”

The nature of data set [10]: solubility. In kind it is physicochemical.
Data set [11] deals with neotetrazolium chloride. The settings on record: sections of various tissues; compared with phenazine methosulphate; cited from earlier work.
In data set [12] the test system is immune arthritis. As to conditions: rabbits fed by gavage, cited from earlier work.
Data set [13] deals with 6-phosphogluconate dehydrogenase (6PGD). The data set can be described thus: 6PGD in synovial lining cells of arthritic rabbits (Example 2). In kind it is in vivo, rabbit. As to conditions: 25 mg/kg orally twice a week, six weeks; olive oil alone 8.2±1.1. As for the experimental part:
(§3) In each of separate groups of six, rabbits were treated with the same volume of either olive oil alone or dimethoxynaphthoquinone in olive oil for six weeks after the initiation of arthritis (six weeks after challenge). The treatment was 25 mg/kg orally twice a week.
(§4) The rabbits were investigated for the concentration of G6PD, 6PGL and 6PGD in synovial lining cells. The respective mean values (±SEM) for the treatment of olive oil alone were 15.4±1.9, 2.5±0.3 and 8.2±1.1; the results for those treated with dimethoxynaphthoquinone were 7.7±1.2, negligible and 4.6±1.1.

Data set [14] has as its system 6-phosphogluconolactonase (6PGL). Nature of the data set: 6PGL in synovial lining cells of arthritic rabbits (Example 2). In kind it is in vivo, rabbit. The settings on record: 25 mg/kg orally twice a week, six weeks; olive oil alone 2.5±0.3. As for the experimental part:
as §3, §4

The subject of data set [15] is glucose 6-phosphate dehydrogenase (G6PD). The data set can be described thus: G6PD in synovial lining cells of arthritic rabbits (Example 2). In kind it is in vivo, rabbit. Here is the method:
as §3, §4

Read-outs that look alike come from different tables or passages of the source.

T1 sequence (P11413 2-515 limits assumed): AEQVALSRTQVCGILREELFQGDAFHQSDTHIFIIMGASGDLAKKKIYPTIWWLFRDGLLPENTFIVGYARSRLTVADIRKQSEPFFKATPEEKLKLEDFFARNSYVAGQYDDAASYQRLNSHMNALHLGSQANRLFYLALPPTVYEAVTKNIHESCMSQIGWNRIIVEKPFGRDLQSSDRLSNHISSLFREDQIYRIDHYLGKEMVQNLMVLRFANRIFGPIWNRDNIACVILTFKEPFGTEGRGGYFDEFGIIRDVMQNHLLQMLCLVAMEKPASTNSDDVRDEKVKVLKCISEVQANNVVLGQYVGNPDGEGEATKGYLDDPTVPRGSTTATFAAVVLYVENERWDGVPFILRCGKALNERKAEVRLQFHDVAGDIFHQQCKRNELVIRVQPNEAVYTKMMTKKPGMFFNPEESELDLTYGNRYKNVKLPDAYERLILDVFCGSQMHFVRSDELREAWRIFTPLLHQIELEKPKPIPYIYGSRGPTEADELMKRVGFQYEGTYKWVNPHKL

Consider `CC1=C(O)C(=O)c2ccccc2C1=O` [phthiocol], for which, in data set [1], the “% decrease in G6PD” value worked out at 47 ± 11.5%. The “E1/2 (mV)” value in data set [2] is listed as -355 mV.
`CC1(S(=O)(=O)O)CC(=O)c2ccccc2C1=O` (centres unmarked) [menadione bisulphite, 2-methyl-l,4-dioxotetralin-sulphonate]: in data set [3], the therapeutic efficacy result was “demonstrated”. Moreover, the “G6PD activity after injection” value was 188 mean integrated extinction ×10^3 /10 min in data set [4] (first patient, before injection 423) and 127 mean integrated extinction ×10^3 /10 min in [4] (second patient, before injection 245). The figures for the “lysosomal latency after injection” value in data set [5] (first patient) and in data set [5] (second patient) were 13 % bound activity and 31 % bound activity, respectively. The reactivity with thiols result in [6] is “unreactive”. In addition, in data set [2] (human plasma), the “redox potential (E1/8) measured in human plasma” value is -640 mV. Also, in data set [2] (versus menadione), the “redox potential compared with menadione” value is “higher redox potential than menadione”.
For `CC1=C(SCCC(N)C(=O)O)C(=O)c2ccccc2C1=O` (centres unmarked) [3-homocysteinylmenadione, reference compound], the “% decrease in G6PD” value in [1] is 25 ± 9.7%. The “E1/2 (mV)” value in data set [2] is reported as -190 mV.
As to `CC12OC1C(=O)c1ccccc1C2=O` (centres unmarked) [menadione epoxide], the “median overall difference in temperature expressed per day (group)” value in data set [7] (from two weeks after treatment until killed, control median 0.589 (0.308 to 0.687), p=0.04) was determined as 0.096 °C day. Further, the “overall degree of inflammation in the challenged joint” value in [7] (one of the twelve treated rabbits (totally negative)) is “-”. The “overall difference in temperature between challenged and unchallenged knees, expressed per day (single rabbit)” value in [7] (one treated rabbit, from two weeks after start of treatment until killed, 25 mg/kg bi-weekly by gavage, control rabbit 0.7110) worked out at 0.096 °C. Besides, the “inflammation assessed by temperature in vivo, visual inspection post mortem and histological examination” value in data set [7] (oral administration, established chronic inflammation) was “marked decrease in the inflammation”. Moreover, the “6PGL activity in the desquamating cells” value in data set [8] (desquamating cells, despite very elevated G6PD) is reported as “no equivalent increase”. In addition, the “effect on 6PGL activity” value in [8] (synovial lining cells) is given as “decrease both activities towards normal levels”. Also, in data set [9] (desquamating cells, as against 25.5 units in "rheumatoid" intact lining cells and 6 units in normal joints), the “G6PD activity in the desquamating cells” value is 45.7 units. In data set [9] (synovial lining cells), the “effect on G6PD activity” value is on record as “decrease both activities towards normal levels”.
Turning to `CC1=CC(=O)c2ccccc2C1=O` [menadione, 2-methyl-1,4-naphthoquinone], in data set [1], the “% decrease in G6PD” value is 38 ± 6.9%. Besides, in data set [10], the solubility entry is recorded as “lipid soluble”. Also, in data set [11], the “transfer of reducing equivalents to neotetrazolium chloride” value was “as effective as phenazine methosulphate”. The “chronic inflammation assessed histologically and by enzyme activity in synovial lining cells” value in [12] (versus control animals) is given as “marked diminution”. The “effect on immune arthritis” value is reported as “significantly ameliorates” in [12] and “effective” in [12] (listed as Menadione). Also, the “E1/2 (mV)” value in data set [2] was -220 mV. Besides, in data set [2] (recorded against a standard calomel electrode, 90% ethanol-0.005M acetate buffer pH 4.0), the “redox potential (E1/8)” value was -220 mV.
In the case of `CC1=C(SC[C@H](NC(=O)CC[C@H](N)C(=O)O)C(=O)NCC(=O)O)C(=O)c2ccccc2C1=O` [3-glutathionylmenadione, reference compound], the “% decrease in G6PD” value in data set [1] is listed as 37 ± 13.0%. Moreover, the “E1/2 (mV)” value in data set [2] is on record as -170 mV.
On to `CC1=C(C)C(=O)c2ccccc2C1=O` [dimethylnaphthoquinone, 2,3-dimethyl-1,4-naphthoquinone], for which the “% decrease in G6PD” value in data set [1] was determined as 61%. The “E1/2 (mV)” value in data set [2] is recorded as -290 mV.
For the molecule `COC1=C(OC)C(=O)c2ccccc2C1=O` [dimethoxynaphthoquinone, 2,3-dimethoxy-1,4-naphthoquinone], the “% decrease in G6PD” value in data set [1] amounted to 49 ± 14.0%. For the same molecule, the “concentration of 6PGD in synovial lining cells (mean ±SEM)” value in data set [13] was 4.6±1.1. In addition, the “concentration of 6PGL in synovial lining cells (mean ±SEM)” value in data set [14] was “negligible”. Besides, the “concentration of G6PD in synovial lining cells (mean ±SEM)” value in data set [15] (25 mg/kg orally twice a week, six weeks, olive oil alone 15.4±1.9) is given as 7.7±1.2. For the same molecule, the “effect on all three enzyme activities: G6PD” value in data set [15] (summary in words for G6PD, 6PGL and 6PGD) is “greatly reduced”. The “E1/2 (mV)” value in [2] is -250 mV.
